Results published in PMC11822212, “High-throughput screening identifies Aurora kinase B as a critical therapeutic target for Merkel cell carcinoma” (Nature Communications, 2025).
Several values for one entry are separate records, joined by “and”; a condition that tells them apart may be missing. Equal entries are not always repeated. Structures can show the parent of a compound that is named as a salt. Where two headings read alike, the source gives them in different places.

Legend:
Assay in all cases: qHTS cell viability (CellTiter-Glo, 72 h; primary and follow-up small molecule screen)
Assay type in all cases: cell-based, human
[1] = system: MCC13 cells (VN-MCC)
[2] = system: MCC26 cells (VN-MCC)
[3] = system: UISO cells (VN-MCC)
[4] = system: WAGA cells (VP-MCC)
[5] = system: MKL-1 cells (VP-MCC)
[6] = system: MKL-2 cells (VP-MCC)
[7] = follow-up screen, MCC13, replicate 1
[8] = follow-up screen, MCC13, replicate 2
[9] = follow-up screen, MCC13, replicate 3
[10] = follow-up screen, MCC26, replicate 1
[11] = follow-up screen, MCC26, replicate 2
[12] = follow-up screen, MCC26, replicate 3
[13] = follow-up screen, UISO, replicate 1
[14] = follow-up screen, UISO, replicate 2
[15] = follow-up screen, UISO, replicate 3
[16] = follow-up screen, WAGA, replicate 1
[17] = follow-up screen, WAGA, replicate 2
[18] = follow-up screen, WAGA, replicate 3
[19] = follow-up screen, MKL-1, replicate 1
[20] = follow-up screen, MKL-1, replicate 2
[21] = follow-up screen, MKL-1, replicate 3
[22] = follow-up screen, MKL-2, replicate 1
[23] = follow-up screen, MKL-2, replicate 2
[24] = follow-up screen, MKL-2, replicate 3

SMILES | Area under the dose-response curve (AUC) MCC13 Replicate 1 [1, 7] | Area under the dose-response curve (AUC) MCC13 Replicate 2 [1, 8] | Area under the dose-response curve (AUC) MCC13 Replicate 3 [1, 9] | Area under the dose-response curve (AUC) MCC26 Replicate 1 [2, 10] | Area under the dose-response curve (AUC) MCC26 Replicate 2 [2, 11] | Area under the dose-response curve (AUC) MCC26 Replicate 3 [2, 12] | Area under the dose-response curve (AUC) UISO Replicate 1 [3, 13] | Area under the dose-response curve (AUC) UISO Replicate 2 [3, 14] | Area under the dose-response curve (AUC) UISO Replicate 3 [3, 15] | Area under the dose-response curve (AUC) WAGA Replicate 1 [4, 16] | Area under the dose-response curve (AUC) WAGA Replicate 2 [4, 17] | Area under the dose-response curve (AUC) WAGA Replicate 3 [4, 18] | Area under the dose-response curve (AUC) MKL-1 Replicate 1 [5, 19] | Area under the dose-response curve (AUC) MKL-1 Replicate 2 [5, 20] | Area under the dose-response curve (AUC) MKL-1 Replicate 3 [5, 21] | Area under the dose-response curve (AUC) MKL-2 Replicate 1 [6, 22] | Area under the dose-response curve (AUC) MKL-2 Replicate 2 [6, 23] | Area under the dose-response curve (AUC) MKL-2 Replicate 3 [6, 24] | also measured
CC(=O)[C@]1(O)Cc2c(O)c3c(c(O)c2[C@@H](O[C@H]2C[C@H](N)[C@H](O)[C@H](C)O2)C1)C(=O)c1ccccc1C3=O [Idarubicin hydrochloride] | 321.5 | 353.4 | 356.2 | 293.6 | 292.8 | 227.6 | 184.7 | 180.9 | 186.4 | 205.3 | 258.0 | 233.3 | 222.7 | 242.3 | 233.3 | 203.6 | 200.3 | 265.0 | –
Fc1ccc2[nH]ccc2c1-c1nc(N2CCOCC2)c2sc(CN3CCN(CC4CC4)CC3)cc2n1 [PI-3065] | – | – | – | – | – | – | – | – | – | – | – | – | – | – | – | – | – | – | Area under the dose-response curve (AUC) [1]: 491.4 and 471.7 and 470.9; Area under the dose-response curve (AUC) [2]: 439.2 and 434.6 and 464.1; Area under the dose-response curve (AUC) [3]: 477.0 and 474.8 and 437.8; Area under the dose-response curve (AUC) [4]: 514.3 and 478.8 and 484.1; Area under the dose-response curve (AUC) [5]: 492.3 and 479.8 and 465.2; Area under the dose-response curve (AUC) [6]: 468.3 and 439.3 and 471.2
CN(C)C(=S)SSC(=S)N(C)C [Thiram] | 426.5 | 421.8 | 374.2 | 337.3 | 393.8 | 315.2 | 236.0 | 292.8 | 254.7 | 336.4 | 438.2 | 469.3 | 288.7 | 292.8 | 242.1 | 303.0 | 281.4 | 269.4 | –
CC[C@H]1CN2CCc3cc(OC)c(OC)cc3[C@@H]2C[C@@H]1C[C@H]1NCCc2cc(OC)c(OC)cc21 [Emetine] | 319.8 | 335.5 | 310.8 | 331.2 | 367.3 | 295.0 | 267.1 | 258.2 | 246.0 | 343.0 | 356.1 | 341.6 | 316.9 | 311.7 | 312.3 | 297.3 | 300.1 | 296.5 | –
COc1ccc2c(c[n+](C)c3c4cc5c(cc4ccc23)OCO5)c1OC [Chelerythrine chloride] | 404.1 | 410.9 | 433.8 | 384.2 | 379.8 | 390.1 | 417.2 | 419.6 | 390.8 | 387.5 | 415.9 | 372.6 | 325.9 | 295.9 | 331.6 | 317.6 | 350.5 | 338.8 | –
CO[C@@H]1C[C@@H](C[C@H]2CC[C@H](C)[C@H]([C@@H](C)C(=O)[O-])O2)O[C@]2(O[C@](C)([C@H]3CC[C@@](C)([C@@H]4O[C@@H]([C@H]5O[C@@](O)(CO)[C@H](C)C[C@@H]5C)C[C@@H]4C)O3)C[C@H]2C)[C@@H]1C.[Na+] [Nigericin sodium salt] | – | – | – | – | – | – | – | – | – | – | – | – | – | – | – | – | – | – | Area under the dose-response curve (AUC) MCC13 Replicate 1 [1]: 420.5; Area under the dose-response curve (AUC) MCC13 Replicate 2 [1]: 422.2; Area under the dose-response curve (AUC) MCC13 Replicate 3 [1]: 367.3; Area under the dose-response curve (AUC) MCC26 Replicate 1 [2]: 423.1; Area under the dose-response curve (AUC) MCC26 Replicate 2 [2]: 378.2; Area under the dose-response curve (AUC) MCC26 Replicate 3 [2]: 418.9; Area under the dose-response curve (AUC) UISO Replicate 1 [3]: 277.0; Area under the dose-response curve (AUC) UISO Replicate 2 [3]: 262.8; Area under the dose-response curve (AUC) UISO Replicate 3 [3]: 250.0; Area under the dose-response curve (AUC) WAGA Replicate 1 [4]: 344.8; Area under the dose-response curve (AUC) WAGA Replicate 2 [4]: 317.4; Area under the dose-response curve (AUC) WAGA Replicate 3 [4]: 302.7; Area under the dose-response curve (AUC) MKL-1 Replicate 1 [5]: 303.1; Area under the dose-response curve (AUC) MKL-1 Replicate 2 [5]: 277.9; Area under the dose-response curve (AUC) MKL-1 Replicate 3 [5]: 285.1; Area under the dose-response curve (AUC) MKL-2 Replicate 1 [6]: 228.1; Area under the dose-response curve (AUC) MKL-2 Replicate 2 [6]: 251.1; Area under the dose-response curve (AUC) MKL-2 Replicate 3 [6]: 280.4
C[C@@H]1O[C@@H](O[C@H]2C[C@@H](O)[C@]3(CO)[C@H]4[C@H](O)C[C@]5(C)[C@@H](C6=CC(=O)OC6)CC[C@]5(O)[C@@H]4CC[C@]3(O)C2)[C@H](O)[C@H](O)[C@H]1O [G-Strophanthin] | 250.1 | 222.2 | 219.6 | 280.5 | 322.9 | 231.8 | 241.1 | 235.2 | 205.5 | 307.5 | 286.8 | 292.2 | 297.3 | 274.0 | 262.6 | 279.7 | 288.8 | 290.5 | –
COc1ccc2cc3[n+](cc2c1OC)CCc1cc2c(cc1-3)OCO2 [Berberine] | 398.2 | 416.5 | 443.1 | 384.2 | 304.3 | 382.1 | 307.5 | 333.0 | 307.0 | 314.6 | 371.3 | 307.0 | 311.8 | 310.8 | 306.9 | 282.0 | 271.5 | 295.9 | –
N#CC(=C(/N)Sc1ccccc1N)/C(C#N)=C(\N)Sc1ccccc1N [U-0126] | 475.9 | 463.7 | 403.4 | 467.3 | 454.7 | 472.7 | 414.2 | 403.9 | 361.8 | 550.5 | 484.0 | 458.9 | 488.8 | 473.7 | 468.2 | 434.1 | 447.4 | 479.4 | –
